Like-named read-outs stand apart in the source and are kept apart here.
How the values were obtained:
[1] = target: serotonin 5-HT2C receptor; set-up: method as in PMID 2860558; details: cited from earlier work
THP-1 cells [2] = experiment: alamarBlue cell viability assay, THP-1; format: cell-based; details: Homo sapiens
Experimental: (§1) The alamarBlue assay was performed to assess cell viability in presence of chemical inhibitors. A total of 50,000 cells per well were seeded in a 96-wells plate in a volume of 100 μL of complete medium together with 10 μL of 10× concentrated inhibitor solution and then incubated for either 24 or 72 h. Each experimental condition was performed in technical quadruplicates, using cells treated with equal amounts of DMSO vehicle as control and medium alone as background. After incubation, alamarBlue was added to each well at a final concentration of 0.15 mg/mL. The fluorescence of the samples was measured 24 h later using a Spark 10 M Multimode Plate Reader (Tecan, Switzerland) with excitation and emission wavelengths of 535 nm and 590 nm, respectively. For dose–response curve fitting, fluorescence values were normalized according to the following formula:Viability (%) = [(sample mean fluorescence)/(DMSO control mean fluorescence)] ∗ 100
(§2) Data are the results of at least five independent experiments analyzed with GraphPad Prism 10 as [inhibitor] vs. normalized response curve (variable slope, after manual outlier removal).

HL-60 cells = experiment: alamarBlue cell viability assay, HL-60; format: cell-based, human
Experimental: as §1, §2

KG-1α = system: KG-1α; set-up: method as in PMID 37392305; details: read-out: IC50 (cytotoxic effects), cited from earlier work
K562 cells = experiment: Annexin V-FITC/7AAD apoptosis/necrosis flow cytometry, K562; format: cell-based, human; details: K562, 24 h
Experimental: To determine the type of cell death, apoptotic and necrotic cells were detected by flow cytometry using the Apoptosis Detection Kit Annexin V-FITC (Invitrogen, Carlsbad, CA, USA). For each sample, 500,000 cells, pretreated for 24 h, were stained according to manufacturer’s instructions, using 7-aminoactinomycin D (7AAD) instead of propidium iodide. Samples were analyzed on a BD FACS Symphony A5 flow cytometer (Franklin Lakes, NJ, USA) using BD FACSDiva 9.1 software. Data were gated based on FSC-A vs. FSC-H to exclude cell doublets and FSC-A vs. SSC-A to exclude debris. Different populations were identified as: live (Annexin V− and 7AAD−), necrotic (Annexin− and 7AAD+), early apoptotic (Annexin V+ and 7AAD−) and late apoptotic (Annexin+ and 7AAD+). Data are shown as mean ± SD of at least three independent experiments analyzed by GraphPad Prism 10 (control vs. [inhibitor]).

[3] = target: serotonin 5-HT2A receptor; details: cited from earlier work
THP-1 cells [4] = experiment: Proteomic profiling (DIA mass spectrometry) of treated THP-1 cells vs DMSO; format: cell-based, human
Experimental: Cells were lysed in RIPA buffer and sonicated. Proteins were precipitated with cold acetone, pelleted, and resuspended. Reduction was carried out in 25 µL of 100 mM NH4HCO3 with 2.5 µL of 200 mM DTT (Merck, St. Louis, MO, USA) at 60 °C for 45 min, followed by alkylation with 10 µL of 200 mM iodoacetamide (Merck, St. Louis, MO, USA) for 1 h at room temperature in the dark. Excess iodoacetamide was quenched by adding 200 mM DTT. Proteins were then digested with trypsin, dried by SpeedVac, and desalted. Peptides were analyzed on an Ultimate 3000 RSLCnano system coupled to an Orbitrap Exploris 480 equipped with FAIMS (all from Thermo Fisher Scientific). Samples were loaded onto a reversed-phase C18 column (15 cm × 75 µm i.d., Thermo Fisher Scientific) and eluted at 500 nL min^−1 using a 6–95% solvent B gradient over 41 min, followed by 1 min of re-equilibration at 6% B. Data were acquired in positive mode with a spray voltage of 2500 V and FAIMS in standard resolution at a compensation voltage of −45 V. Data-independent acquisition (DIA) was performed with a precursor m/z range of 400–900, using 8 m/z isolation windows with 1 m/z overlap, HCD collision energy of 27%, Orbitrap resolution of 30,000, RF Lens 50%, normalized AGC target 1000, maximum injection time 25 ms, and 1 microscan. DIA data were processed with DIA-NN (v1.8.1) in library-free mode, applying deep-learning prediction for spectra, retention times, and ion mobility. Searches assumed Trypsin/P specificity, precursor charges 1–4, peptide lengths of 7–30 amino acids, and precursor m/z values of 400–900, allowing up to two missed cleavages. Carbamidomethylation of Cys was set as a fixed modification; Met oxidation was set as a variable modification (maximum two per peptide). The false discovery rate was maintained at 1%.
Normalized data from two independent proteomic experiments were obtained, each comparing a treatment condition to DMSO: (1) ritanserin vs. DMSO and (2) BAY 2965501 vs. DMSO. For each condition, three biological replicates were analyzed.
Protein abundance differences were calculated separately for each treatment relative to DMSO using a t-test, generating log2 fold change (log2FC) and adjusted p-values (p-adj). All proteins identified by UniProt ID were annotated with the corresponding gene symbol using QIAGEN Ingenuity Pathway Analysis (IPA; QIAGEN Inc., https://digitalinsights.qiagen.com/IPA, accessed on 5 June 2025). Proteins lacking a gene symbol were annotated as NA [42].
Data were filtered to include only proteins with |log2FC| > 2 and p-adj < 0.05, and retaining those annotated with a gene symbol.
Cells treated with equal amounts of DMSO (vehicle) were used as controls.

Kasumi-1 = system: Kasumi-1; set-up: method as in PMID 37392305; details: read-out: IC50 (cytotoxic effects), cited from earlier work
[5] = concentration close to IC50, representative plot

## Cc1nc2sccn2c(=O)c1CCN1CCC(=C(c2ccc(F)cc2)c2ccc(F)cc2)CC1 [ritanserin]
[1]
  Ki: 0.00071 µM
THP-1 cells [2]; THP-1, 24 h, THP-1, 24 h treatment then alamarBlue 24 h
  IC50: 37 ± 1.4 µM
THP-1 cells [2]; THP-1, THP-1, 72 h treatment then alamarBlue 24 h
  IC50: 32 ± 1.5 µM
HL-60 cells; HL-60, 24 h treatment then alamarBlue 24 h
  IC50: ~38 µM
HL-60 cells; Homo sapiens, HL-60, 24 h, HL-60, 24 h treatment then alamarBlue 24 h
  IC50: 37.6 ± 1.5 µM
HL-60 cells; Homo sapiens, HL-60, HL-60, 72 h treatment then alamarBlue 24 h
  IC50: 25.3 ± 0.9 µM
KG-1α; 24 h
  IC50: 38 µM
KG-1α; 72 h
  IC50: 26 µM
K562 cells; [5]
  Early apoptotic (Annexin V+ 7AAD-): 6.2%
  Late apoptotic (Annexin+ 7AAD+): 1.7%
  Live cells (Annexin V- 7AAD-): 90.1%
  Necrotic (Annexin- 7AAD+): 2.0%
K562 cells; concentration near IC50
  modality of cell death: early apoptosis
[3]
  Ki: 0.00045 µM
THP-1 cells [4]; THP-1, 24 h, ritanserin 50 µM, BAY 2965501 75 µM, vs DMSO
  number of significantly downregulated proteins: approximately 1200
THP-1 cells [4]; THP-1, 24 h, ritanserin 50 µM, vs DMSO
  number of significantly upregulated proteins: 14
THP-1 cells [4]; THP-1, ritanserin 50 µM, 24 h
  log2FC A2M (P01023) protein abundance vs DMSO: 4.998
  log2FC AAAS (Q9NRG9) protein abundance vs DMSO: 0.1245
  log2FC AACS (Q86V21) protein abundance vs DMSO: 1.025
  log2FC AAK1 (Q2M2I8) protein abundance vs DMSO: -2.961
  log2FC AAMDC (Q9H7C9) protein abundance vs DMSO: -1.488
THP-1 cells [4]; THP-1, |log2FC| > 2 and p-adj < 0.05, with gene symbol, vs DMSO
  number of differentially abundant proteins: 1210
Kasumi-1; Kasumi-1, 24 h
  IC50: 51 µM
Kasumi-1; Kasumi-1, 72 h
  IC50: 30 µM
